Measurements as given in patent US5739284A, “Compositions corresponding to a high-affinity glutamate transporter molecule and methods for making and using same” (Brigham and Women's Hospital, Inc., priority 1995, dated 1998).

Legend:
[1] = tested on: excitatory amino acid carrier protein derived from rabbit; test: effect of external K+ on current evoked by L-glutamate; type: cell-based; details: 50 μM L-glutamate, 0-50 mM K+, -30 mV, FIG. 10
Method: Xenopus laevis oocytes were injected with cRNA (25 ng/oocyte) encoding for the excitatory amino acid carrier protein derived from rabbit as described in Example 1. Electrophysiological measurements were performed 3-4 days after injection using a conventional two-microelectrode voltage clamp method (Axoclamp-2A, Axon Instruments, CA).
The bath medium were prepared containing potassium ion concentrations in concentrations ranging from 0 mM-50 mM. The bath media were held at a holding potential of -30 mV, and normalized to the current measured on the same oocyte (the value at 0 mM K^+ is 100%). Consecutive current measurements were made on single oocytes after changing to bath medium containing the appropriate K^+ concentration. […] The bath medium contained z mM KCl (where z=0-50), 50-z mM choline Cl, 50 mM NaCl, 1.8 mM CaCl2, 1.0 mM MgCl2, 10 mM BaCl2, 5 mM HEPES pH 7.4.

[2] = target: T1, excitatory amino acid carrier protein (EAAC1) derived from rabbit (Oryctolagus cuniculus, UniProt P31597); test: uptake of 14C-L-glutamate or 14C-L-aspartate by Xenopus oocytes injected with rabbit EAAC1 cRNA; type: cell-based; details: carrier protein of Seq. ID No. 4
T1 sequence (P31597 1-524): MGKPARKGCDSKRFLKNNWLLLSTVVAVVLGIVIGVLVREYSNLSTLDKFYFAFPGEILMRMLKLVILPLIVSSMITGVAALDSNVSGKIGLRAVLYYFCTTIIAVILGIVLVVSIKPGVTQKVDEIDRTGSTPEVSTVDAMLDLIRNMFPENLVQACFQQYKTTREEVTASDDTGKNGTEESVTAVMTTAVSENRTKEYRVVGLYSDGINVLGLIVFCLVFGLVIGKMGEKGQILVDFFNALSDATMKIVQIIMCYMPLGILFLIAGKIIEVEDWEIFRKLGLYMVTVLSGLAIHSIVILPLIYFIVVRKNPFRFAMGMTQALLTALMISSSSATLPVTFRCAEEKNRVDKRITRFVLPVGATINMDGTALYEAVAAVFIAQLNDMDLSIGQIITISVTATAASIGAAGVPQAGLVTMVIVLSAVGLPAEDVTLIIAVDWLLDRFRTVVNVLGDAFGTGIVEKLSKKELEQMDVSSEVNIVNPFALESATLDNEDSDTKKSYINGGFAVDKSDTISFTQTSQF
Method: Poly(A)^+ RNA was isolated and injected into collagenase-treated and manually-defolliculated Xenopus laevis oocytes.
All uptakes in this and the following figures were performed with 6-8 oocytes, 3 days after injection. […] For the sodium-free medium, sodium chloride was replaced by Choline-chloride. RNA-injected oocytes were injected with 25 ng cRNA in 50 nl.
The solutions described above were modified to the extent that acetate ion was substituted for chloride ion.

Row | Structure (SMILES) | inhibition of L-glutamate evoked current by external K+ [1] | activity for glutamine transport [2]
1 | [K+] [K^+, potassium ion] | greater degree of inhibition of current at higher K^+ concentration | 
2 | NC(=O)CC[C@H](N)C(=O)O [Glutamine] |  | slight activity
